Among the data in patent US20070249590A1, “Substituted indolo[2,3-a]pyrrolo[3,4-c]carbazole compounds useful in treating kinase disorders” (priority 2005, published 2007) are IC50 values, retold here.

For this assay, the target named is T1, JAK3 (JH1 and JH2 domain) (Homo sapiens, UniProt P52333).
T1 sequence (P52333 521-1111 limits assumed): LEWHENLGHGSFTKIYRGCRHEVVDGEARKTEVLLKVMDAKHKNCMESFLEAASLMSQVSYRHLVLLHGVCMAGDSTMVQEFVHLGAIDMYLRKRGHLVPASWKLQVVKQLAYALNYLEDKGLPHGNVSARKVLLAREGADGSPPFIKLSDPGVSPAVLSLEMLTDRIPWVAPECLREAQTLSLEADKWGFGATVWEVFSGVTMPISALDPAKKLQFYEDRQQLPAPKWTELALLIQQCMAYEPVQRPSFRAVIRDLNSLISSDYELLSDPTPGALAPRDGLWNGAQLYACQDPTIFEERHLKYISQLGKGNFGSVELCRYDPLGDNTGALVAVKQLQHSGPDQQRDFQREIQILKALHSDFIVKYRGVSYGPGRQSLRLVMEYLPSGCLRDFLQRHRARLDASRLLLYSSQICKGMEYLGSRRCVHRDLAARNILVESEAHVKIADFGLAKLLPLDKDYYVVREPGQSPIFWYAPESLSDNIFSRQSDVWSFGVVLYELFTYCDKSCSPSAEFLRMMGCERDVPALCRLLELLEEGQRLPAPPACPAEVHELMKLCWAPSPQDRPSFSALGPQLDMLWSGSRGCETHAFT
In words: JAK3 Kinase Assay (ELISA of peptide substrate phosphorylation). The assay is classed as biochemical. To be noted: purified JAK3 enzyme, 10 μM ATP, biotinylated peptide substrate, 1 hour at room temperature. An outline of the steps:
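Sf21-baculovirus-expressed JAK3 (JH1+JH2), glutathione-bead purified, with biotinylated peptide substrate (in buffer containing 10 μM ATP) in HEPES pH 7.5/MgCl2/DTT, 1 h RT. Product was captured on Neutravidin, detected with HRP anti-phosphotyrosine (PY99)/TMB, OD 450/650 nm. Triplicate 16-point half-log series from 200 μM gave IC50; otherwise % inhibition at 1 μM.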
Take `O=C1NC(=O)c2c1c1c3ccccc3n3c1c1c2c2ccccc2n1CC(OC(=O)N1CCN(c2ccccn2)CC1)C(O)C3` (stereo not shown) [Cpd 112, 12,13-{2-[(4-pyridin-2-yl-piperazin-1-yl)carbonyloxy]-3-hydroxy-butan-1,4-yl}-12,13-dihydro-5,7-dioxo-6H-indolo[2,3-a]pyrrolo[3,4-c]carbazole]: the IC50 was 1080 nM.

Regarding `O=C1NC(=O)c2c1c1c3ccccc3n3c1c1c2c2ccccc2n1CC(OC(=O)N1CCN(c2ccncc2)CC1)C(O)C3` (stereo not shown) [Cpd 96, 12,13-{2-[(4-pyridin-4-yl-piperazin-1-yl)carbonyloxy]-3-hydroxy-butan-1,4-yl}-12,13-dihydro-5,7-dioxo-6H-indolo[2,3-a]pyrrolo[3,4-c]carbazole], the IC50 stood at 295 nM.

As for `O=C1NC(=O)c2c1c1c3ccccc3n3c1c1c2c2ccccc2n1CC(OC(=O)N1CCN(CCN2CCOCC2)CC1)CC3` (stereo not shown) [Cpd 56, 12,13-(2-{[4-(2-morpholin-4-yl-ethyl)piperazin-1-yl]carbonyloxy}-butan-1,4-yl)-12,13-dihydro-5,7-dioxo-6H-indolo[2,3-a]pyrrolo[3,4-c]carbazole], the IC50 was 115 nM.

`O=C1NC(=O)c2c1c1c3ccccc3n3c1c1c2c2ccccc2n1CC(O)(C(=O)NCCCN1CCCC1=O)C(O)C3` (stereo not shown) [Cpd 127, 12,13-(2-{[3-(2-oxo-pyrrolidin-1-yl)prop-1-yl]carbamoyl}-2,3-dihydroxy-butan-1,4-yl)-12,13-dihydro-5,7-dioxo-6H-indolo[2,3-a]pyrrolo[3,4-c]carbazole]: the IC50 stood at 48 nM.

As to `O=C1NC(=O)c2c1c1c3ccccc3n3c1c1c2c2ccccc2n1CC(O)(C(=O)NCCc1cccs1)C(O)C3` (stereo not shown) [Cpd 128, 12,13-{2-[(2-thien-2-yl-ethyl)carbamoyl]-2,3-dihydroxy-butan-1,4-yl}-12,13-dihydro-5,7-dioxo-6H-indolo[2,3-a]pyrrolo[3,4-c]carbazole], the IC50 worked out at 94 nM.

`CN1CCN(C(=O)C2(O)Cn3c4ccccc4c4c5c(c6c7ccccc7n(c6c43)CC2O)C(=O)NC5=O)CC1` (stereo not shown) [Cpd 125, 12,13-{2-[(4-methyl-piperazin-1-yl)carbonyl]-2,3-dihydroxy-butan-1,4-yl}-12,13-dihydro-5,7-dioxo-6H-indolo[2,3-a]pyrrolo[3,4-c]carbazole]: the IC50 is 27 nM.

For the compound `O=C1NCc2c1c1c3cc(/C=N/NC4=NCCN4)ccc3n3c1c1c2c2ccccc2n1CC(O)C(O)C3` (stereo not shown) [Cpd 200, 3-[(4,5-dihydro-1H-imidazol-2-yl)hydrazomethylene]-12,13-(2,3-dihydroxy-butan-1,4-yl)-6,7,12,13-tetrahydro-5-oxo-5H-indolo[2,3-a]pyrrolo[3,4-c]carbazole], the IC50 was found to be 19 nM.

Take `O=C(NCCCn1ccnc1)OC1CCn2c3ccccc3c3c4c(c5c6ccccc6n(c5c32)C1)C(=O)NC4=O` (stereo not shown) [Cpd 36, 12,13-{2-[(3-imidazol-1-yl-prop-1-yl)carbamoyloxy]-butan-1,4-yl}-12,13-dihydro-5,7-dioxo-6H-indolo[2,3-a]pyrrolo[3,4-c]carbazole]: the IC50 is 30 nM.

Regarding `O=C1NCc2c1c1c3cc(Cn4ccnc4)ccc3n3c1c1c2c2ccccc2n1CC(O)C(O)C3` (stereo not shown) [Cpd 202, 3-(imidazol-1-ylmethyl)-12,13-(2,3-dihydroxy-butan-1,4-yl)-6,7,12,13-tetrahydro-5-oxo-5H-indolo[2,3-a]pyrrolo[3,4-c]carbazole], the IC50 was determined as 103 nM.

As for `O=C1NCc2c1c1c3cc(Br)ccc3n3c1c1c2c2cc(CN4CCOCC4)ccc2n1CC(CO)C3` (stereo not shown) [Cpd 208, 3-bromo-9-(morpholin-4-ylmethyl)-12,13-(2-hydroxymethyl-propan-1,3-yl)-6,7,12,13-tetrahydro-5-oxo-5H-indolo[2,3-a]pyrrolo[3,4-c]carbazole], the IC50 came to 3130 nM.

On to `O=C(NCc1ccc2c(c1)OCO2)OC1CCn2c3ccccc3c3c4c(c5c6ccccc6n(c5c32)C1)C(=O)NC4=O` (stereo not shown) [Cpd 46, 12,13-{2-[(benzo[1,3]dioxol-5-yl-methyl)carbamoyloxy]-butan-1,4-yl}-12,13-dihydro-5,7-dioxo-6H-indolo[2,3-a]pyrrolo[3,4-c]carbazole], for which the IC50 is 66 nM.

Turning to `O=C1NC(=O)c2c1c1c3ccccc3n3c1c1c2c2ccccc2n1CC(O)(C(=O)N1CCN(CCO)CC1)C(O)C3` (stereo not shown) [Cpd 130], the IC50 was 48 nM.

Regarding `O=C1NCc2c1c1c3ccccc3n3c1c1c2c2ccccc2n1CC(COC(=O)N1CCN(C(=O)OCc2ccccc2)CC1)C3` (stereo not shown) [Cpd 167, 12,13-(2-{[4-(benzyloxycarbonyl)piperazin-1-yl]carbonyloxymethyl}-propan-1,3-yl)-6,7,12,13-tetrahydro-5-oxo-5H-indolo[2,3-a]pyrrolo[3,4-c]carbazole], the IC50 worked out at 202 nM.

Turning to `O=C1NC(=O)c2c1c1c3ccccc3n3c1c1c2c2ccccc2n1CC(OC(=O)N1CCN(c2ccncc2)CC1)CC3` (stereo not shown) [Cpd 55, 12,13-{2-[(4-pyridin-4-yl-piperazin-1-yl)carbonyloxy]-butan-1,4-yl}-12,13-dihydro-5,7-dioxo-6H-indolo[2,3-a]pyrrolo[3,4-c]carbazole], the IC50 is 314 nM.

For `CC(=O)c1ccc(N2CCN(C(=O)OC3CCn4c5ccccc5c5c6c(c7c8ccccc8n(c7c54)C3)C(=O)NC6=O)CC2)cc1` (stereo not shown) [Cpd 59, 12,13-(2-{[4-(4-methylcarbonyl-phenyl)piperazin-1-yl]carbonyloxy}-butan-1,4-yl)-12,13-dihydro-5,7-dioxo-6H-indolo[2,3-a]pyrrolo[3,4-c]carbazole], the IC50 stood at 547 nM.

As for `O=C1NCc2c1c1c3cc(/C=C/n4ccnc4)ccc3n3c1c1c2c2ccccc2n1CC(CO)C3` (stereo not shown) [Cpd 220, 3-[(2E)-2-1H-imidazol-1-yl-ethenyl]-12,13-(2-hydroxymethyl-propan-1,3-yl)-6,7,12,13-tetrahydro-5-oxo-5H-indolo[2,3-a]pyrrolo[3,4-c]carbazole], the IC50 is 90 nM.

Turning to `CC(C)NCc1ccc2c(c1)c1c3c(c4c5ccccc5n5c4c1n2CC(CO)C5)CNC3=O` (stereo not shown) [Cpd 213, 3-(isopropylaminomethyl)-12,13-(2-hydroxymethyl-propan-1,3-yl)-6,7,12,13-tetrahydro-5-oxo-5H-indolo[2,3-a]pyrrolo[3,4-c]carbazole], the IC50 was found to be 241 nM.

As to `O=C1NCc2c1c1c3cc(Br)ccc3n3c1c1c2c2ccccc2n1CC(O)C(O)C3` (stereo not shown) [Cpd 188, 3-bromo-12,13-(2,3-dihydroxy-butan-1,4-yl)-6,7,12,13-tetrahydro-5-oxo-5H-indolo[2,3-a]pyrrolo[3,4-c]carbazole], the IC50 was determined as 34 nM.

For `COc1ccc(CCNC(=O)OCC2Cn3c4ccccc4c4c5c(c6c7ccccc7n(c6c43)C2)C(=O)NC5)cc1OC` (stereo not shown) [Cpd 161, 12,13-(2-{[2-(3,4-dimethoxy-phenyl)ethyl]carbamoyloxymethyl}-propan-1,3-yl)-6,7,12,13-tetrahydro-5-oxo-5H-indolo[2,3-a]pyrrolo[3,4-c]carbazole], the IC50 stood at 1010 nM.

Take `O=C1NC(=O)c2c1c1c3ccccc3n3c1c1c2c2ccccc2n1CC(OC(=O)N1CCN(c2ccccc2)CC1)CC3` (stereo not shown) [Cpd 64, 12,13-{2-[(4-phenyl-piperazin-1-yl)carbonyloxy]-butan-1,4-yl}-12,13-dihydro-5,7-dioxo-6H-indolo[2,3-a]pyrrolo[3,4-c]carbazole]: the IC50 was 36 nM.

As to `O=C1NCc2c1c1c3ccccc3n3c1c1c2c2ccccc2n1CCC(OC(=O)N1CCN(c2ccc(O)cc2)CC1)CC3` (stereo not shown) [Cpd 181, 12,13-(3-{[4-(4-hydroxy-phenyl)piperazin-1-yl]carbonyloxy}-pentan-1,5-yl)-6,7,12,13-tetrahydro-5-oxo-5H-indolo[2,3-a]pyrrolo[3,4-c]carbazole], the IC50 stood at 7360 nM.

Turning to `O=C1NCc2c1c1c3cc(OCCN4CCOCC4)ccc3n3c1c1c2c2ccccc2n1CC(O)C(O)C3` (stereo not shown) [Cpd 203, 3-(2-morpholin-4-yl-ethoxy)-12,13-(2,3-dihydroxy-butan-1,4-yl)-6,7,12,13-tetrahydro-5-oxo-5H-indolo[2,3-a]pyrrolo[3,4-c]carbazole], the IC50 stood at 618 nM.

With `CN(C)CCSCc1ccc2c(c1)c1c3c(c4c5ccccc5n5c4c1n2CC(O)C(O)C5)CNC3=O` (stereo not shown) [Cpd 199, 3-[(2-dimethylamino-ethyl)thiomethyl]-12,13-(2,3-dihydroxy-butan-1,4-yl)-6,7,12,13-tetrahydro-5-oxo-5H-indolo[2,3-a]pyrrolo[3,4-c]carbazole], the IC50 is 309 nM.

For `COc1ccc(CCNC(=O)OC2CCn3c4ccccc4c4c5c(c6c7ccccc7n(c6c43)CC2)C(=O)NC5)cc1OC` (stereo not shown) [Cpd 183, 12,13-(3-{[2-(3,4-dimethoxy-phenyl)ethyl]carbamoyloxy}-pentan-1,5-yl)-6,7,12,13-tetrahydro-5-oxo-5H-indolo[2,3-a]pyrrolo[3,4-c]carbazole], the IC50 came to 1270 nM.

For the compound `CN(C)[C@H]1CCN(C(=O)OCC2Cn3c4ccccc4c4c5c(c6c7ccccc7n(c6c43)C2)C(=O)NC5)C1` (stereo partly drawn) [Cpd 171, 12,13-(2-{[(3S)-3-dimethylamino-pyrrolidin-1-yl]carbonyloxymethyl}-propan-1,3-yl)-6,7,12,13-tetrahydro-5-oxo-5H-indolo[2,3-a]pyrrolo[3,4-c]carbazole], the IC50 was 677 nM.
